In patent US20170166555A1, “FUNCTIONALISED AND SUBSTITUTED INDOLES AS ANTI-CANCER AGENTS” (Novogen Limited, priority 2013, published 2017) one finds IC50 data, which are given here for 15 compounds.

Common to all, as to experiment: Anti-proliferative assay, cell-titre luminescent reagent, 72 h (GVK-BIO)
Type in all cases: cell-based

Assay [1] has as its system SK-N-SH neuroblastoma cells. The note with it: Homo sapiens. How it is done:
(§1) The ability of compounds 4001, 4002, 4008, 4010, 4011, 4013-4015, 4018, 4026, 4045-4113 and 4115-4127 to inhibit the proliferation of cancer cells representative of neuroblastoma, melanoma, prostate cancer, colorectal cancer, non-small cell lung carcinoma, and triple negative breast cancer was assessed. These studies were conducted by contract research (GVK-BIO). Briefly, a pre-determined number of cells as calculated from cell growth assays for each of the cell lines employed were seeded into their respective culture medium (using ATCC culture parameters—http://www.atcc.org) and cultured for 24 h at 37° C. and 5% CO2 in 96-well culture plates. Once attached, each cell line was then exposed to various concentrations of each respective analogue (30, 3, 0.3 and 0.03 μM for compounds in Tables 2, 3 and 4; 30, 10, 3, 1, 0.3 and 0.1 μM for compounds in Table 5), cultured for a further 72 h and exposed to cell-titre luminescent reagent (100 μL/well) for a further 30 min). Luminescence was captured using an EnVision multilabel reader and the data for each analogue concentration compared against no treatment control. For compounds in Tables 2-4, semi-log plots of Percent of Control versus concentration were prepared and IC50 determined using linear regression analysis. For compounds in Table 5, cell viability was normalized to control (vehicle alone) and dose-response curves, and half maximal effective concentration (EC50) values were determined using Graph Pad Prism 6 (nonlinear regression sigmoidal dose-response variable slope).

Assay [2] deals with MDA-MB-231 triple negative breast cancer cells. The note with it: Homo sapiens. How it is done: as §1
The test system of assay [3] is DU145 prostate cancer cells. The note with it: Homo sapiens. The procedure: as §1
The test system of assay [4] is CaCo2 colorectal cancer cells. As to conditions: Homo sapiens. How it is done: as §1
Assay [5] has as its system A549 non-small cell lung carcinoma cells. The note with it: Homo sapiens, read-out: IC50/μM Lung (NSLC) A549. How it is done: as §1
Assay [6] concerns SK-Mel-28 melanoma cells. The note with it: Homo sapiens. How it is done:
as §1

Assay [7] has as its system PC3 prostate cancer cells. The procedure: as §1
Setting [8] is: SK-N-SH, 30, 3, 0.3 and 0.03 μM, linear regression (Tables 2-4).
Where [9] appears, read: MDA-MB-231, 72 h, 30, 3, 0.3 and 0.03 μM, linear regression (Tables 2-4).
Where [10] appears, read: DU-145, 72 h, 30, 3, 0.3 and 0.03 μM, linear regression (Tables 2-4).
Where [11] appears, read: Caco-2, 72 h, 30, 3, 0.3 and 0.03 μM, linear regression (Tables 2-4).
The mark [12] stands for this setting: A549, 72 h, 30, 3, 0.3 and 0.03 μM, linear regression (Tables 2-4).
Where [13] appears, read: SK-MEL-28, 72 h, 30, 3, 0.3 and 0.03 μM, linear regression (Tables 2-4).
Setting [14] is: 30, 3, 0.3 and 0.03 μM, linear regression (Tables 2-4).
[15] abbreviates: SK-N-SH, 30, 10, 3, 1, 0.3 and 0.1 μM, nonlinear regression (Table 5).
The mark [16] stands for this setting: MDA-MB-231, 72 h, 30, 10, 3, 1, 0.3 and 0.1 μM, nonlinear regression (Table 5).
[17] abbreviates: DU-145, 72 h, 30, 10, 3, 1, 0.3 and 0.1 μM, nonlinear regression (Table 5).
Setting [18] is: Caco-2, 72 h, 30, 10, 3, 1, 0.3 and 0.1 μM, nonlinear regression (Table 5).
[19] abbreviates: A549, 72 h, 30, 10, 3, 1, 0.3 and 0.1 μM, nonlinear regression (Table 5).
Setting [20] is: SK-MEL-28, 72 h, 30, 10, 3, 1, 0.3 and 0.1 μM, nonlinear regression (Table 5).
Setting [21] is: 30, 10, 3, 1, 0.3 and 0.1 μM, nonlinear regression (Table 5).

Like-named read-outs stand apart in the source and are kept apart here.

With `CN(C)CCCn1ccc2cc(Cc3ccc(C(=O)Nc4ccc(F)cc4)cc3)ccc21` [Compound 4077, 4-((1-(3-(dimethylamino)propyl)-1H-indol-5-yl)methyl)-N-(4-fluorophenyl)benzamide], the IC50 in assay [1] (setting [8]) was 3.1 µM; in assay [2] (setting [9]), 3.4 µM; in assay [3] (setting [10]), 3.2 µM; in assay [4] (setting [11]) it was 3.3 µM; in assay [5] (setting [12]), 3.3 µM; in assay [6] (setting [13]), 2.7 µM. For the same compound, the IC50 in assay [7] (setting [14]) was found to be 2.8 µM.

Take `COc1ccc(NC(=O)c2ccc(Cc3ccc4c(ccn4CCCN(C)C)c3)cc2)cc1` [Compound 4078, 4-((1-(3-(dimethylamino)propyl)-1H-indol-5-yl)methyl)-N-(4-methoxyphenyl)benzamide]: the IC50 in assay [1] (setting [8]) is 6.5 µM; in assay [2] (setting [9]), 1.6 µM; in assay [3] (setting [10]), 1.4 µM; in assay [4] (setting [11]), 3.6 µM; in assay [5] (setting [12]) it was 1.4 µM; in assay [6] (setting [13]) it was 1.9 µM. The same compound had an IC50 in assay [7] (setting [14]) of 1.2 µM.

Regarding `CN(C)CCCn1ccc2cc(Cc3ccc(C(=O)Nc4ccc5c(c4)OCO5)cc3)ccc21` [Compound 4079, N-(benzo[d][1, 3]dioxol-5-yl)-4-((1-(3-(dimethylamino)propyl)-1H-indol-5-yl)methyl)benzamide], the IC50 in assay [1] (setting [8]) is 2.9 µM; in assay [2] (setting [9]), 4.3 µM; in assay [3] (setting [10]), 3.1 µM; in assay [4] (setting [11]), over 30 µM; in assay [5] (setting [12]) it was 3.1 µM; in assay [6] (setting [13]) it was 2.8 µM. For the same compound, the IC50 in assay [7] (setting [14]) worked out at 1.8 µM.

In the case of `CN(C)CCCn1ccc2cc(Cc3ccc(C(=O)Nc4cccc(F)c4)cc3)ccc21` [Compound 4080, 4-((1-(3-(dimethylamino)propyl)-1H-indol-5-yl)methyl)-N-(3-fluorophenyl)benzamide], the IC50 was 2.8 µM in assay [1] (setting [8]); 3.2 µM in assay [2] (setting [9]); 3.5 µM in assay [3] (setting [10]); 3 µM in assay [4] (setting [11]); 3.1 µM in assay [5] (setting [12]); 3.1 µM in assay [6] (setting [13]). In assay [7] (setting [14]), this compound registered an IC50 of 3 µM.

In the case of `COc1cccc(NC(=O)c2ccc(Cc3ccc4c(ccn4CCCN(C)C)c3)cc2)c1` [Compound 4081, 4-((1-(3-(dimethylamino)propyl)-1H-indol-5-yl)methyl)-N-(3-methoxyphenyl)benzamide], the IC50 in assay [1] (setting [8]) was determined as 1.6 µM; in assay [2] (setting [9]), 2.5 µM; in assay [3] (setting [10]) it was 2.9 µM; in assay [4] (setting [11]) it was 3.1 µM; in assay [5] (setting [12]), 2.9 µM; in assay [6] (setting [13]) it was 2.3 µM. For the same compound, the IC50 in assay [7] (setting [14]) came to 2.1 µM.

For `Cc1c(C)n(CCCN(C)C)c2ccc(Cc3ccc(C(=O)Nc4ccc(F)cc4)cc3)cc12` [Compound 4082, 4-((1-(3-(dimethylamino)propyl)-2,3-dimethyl-1H-indol-5-yl)methyl)-N-(4-fluorophenyl)benzamide], the IC50 came to 4.8 µM in assay [1] (setting [15]); 4.2 µM in assay [2] (setting [16]); 2.6 µM in assay [3] (setting [17]); 4 µM in assay [4] (setting [18]); 4.9 µM in assay [5] (setting [19]); 4.6 µM in assay [6] (setting [20]). Moreover, the IC50 in assay [7] (setting [21]) turned out to be 3.9 µM.

As for `COc1ccc(NC(=O)c2ccc(Cc3ccc4c(c3)c(C)c(C)n4CCCN(C)C)cc2)cc1` [Compound 4083, 4-((1-(3-(dimethylamino)propyl)-2,3-dimethyl-1H-indol-5-yl)methyl)-N-(4-methoxyphenyl)benzamide], the IC50 stood at 3.3 µM in assay [1] (setting [15]); 13.1 µM in assay [2] (setting [16]); 5.1 µM in assay [3] (setting [17]); 11.9 µM in assay [4] (setting [18]); 11.2 µM in assay [5] (setting [19]); 4.7 µM in assay [6] (setting [20]). Also, the IC50 in assay [7] (setting [21]) came to 13.2 µM.

As for `Cc1c(C)n(CCCN(C)C)c2ccc(Cc3ccc(C(=O)Nc4ccc5c(c4)OCO5)cc3)cc12` [Compound 4084, N-(benzo[d][1,3]dioxol-5-yl)-4-((1-(3-(dimethylamino)propyl)-2,3-dimethyl-1H-indol-5-yl)methyl)benzamide], the IC50 in assay [1] (setting [15]) was 10.6 µM; in assay [2] (setting [16]), 6.5 µM; in assay [3] (setting [17]), 4.8 µM; in assay [4] (setting [18]) it was 7.1 µM; in assay [5] (setting [19]), 6 µM; in assay [6] (setting [20]) it was 5.5 µM. In assay [7] (setting [21]), this compound had an IC50 of 3.5 µM.

Consider `Cc1c(C)n(CCCN(C)C)c2ccc(Cc3ccc(C(=O)Nc4cccc(F)c4)cc3)cc12` [Compound 4085, 4-((1-(3-(dimethylamino)propyl)-2,3-dimethyl-1H-indol-5-yl)methyl)-N-(3-fluorophenyl)benzamide], for which the IC50 in assay [1] (setting [8]) worked out at 9.8 µM; in assay [2] (setting [9]), 11.2 µM; in assay [3] (setting [10]), 11 µM; in assay [4] (setting [11]), 10.9 µM; in assay [5] (setting [12]), 10.1 µM; in assay [6] (setting [13]), 10.5 µM. Further, in assay [7] (setting [14]), the IC50 turned out to be 10.1 µM.

`COc1cccc(NC(=O)c2ccc(Cc3ccc4c(c3)c(C)c(C)n4CCCN(C)C)cc2)c1` [Compound 4086, 4-((1-(3-(dimethylamino)propyl)-2,3-dimethyl-1H-indol-5-yl)methyl)-N-(3-methoxyphenyl)benzamide]: the IC50 turned out to be 5.7 µM in assay [1] (setting [15]); 6.2 µM in assay [2] (setting [16]); 4.3 µM in assay [3] (setting [17]); 7.6 µM in assay [4] (setting [18]); 5 µM in assay [5] (setting [19]); 5.2 µM in assay [6] (setting [20]). The compound further yielded an IC50 in assay [7] (setting [21]) of 4.8 µM.

`Cc1c(C)n(CCCN(C)C)c2ccc(Cc3ccc(C(=O)Nc4ccccc4)cc3)cc12` [Compound 4087, 4-((1-(3-(dimethylamino)propyl)-2,3-dimethyl-1H-indol-5-yl)methyl)-N-phenylbenzamide]: the IC50 in assay [1] (setting [15]) amounted to 5.6 µM; in assay [2] (setting [16]), 7.5 µM; in assay [3] (setting [17]) it was 7.1 µM; in assay [4] (setting [18]) it was 23.1 µM; in assay [5] (setting [19]), 8.9 µM; in assay [6] (setting [20]), 4.8 µM. This compound had an IC50 in assay [7] (setting [21]) of 7.4 µM.

Regarding `CN(C)CCCn1ccc2cc(Oc3ccc(C(=O)Nc4ccc(F)cc4)cc3)ccc21` [Compound 4088, 4-((1-(3-(dimethylamino)propyl)-1H-indol-5-yl)oxy)-N-(4-fluorophenyl)benzamide], the IC50 in assay [1] (setting [8]) turned out to be 3.4 µM; in assay [2] (setting [9]), 3.8 µM; in assay [3] (setting [10]), 3.3 µM; in assay [4] (setting [11]) it was 4.1 µM; in assay [5] (setting [12]), 3.4 µM; in assay [6] (setting [13]), 4.3 µM. The compound also came in with an IC50 in assay [7] (setting [14]) of 3.5 µM.

Regarding `COc1ccc(NC(=O)c2ccc(Oc3ccc4c(ccn4CCCN(C)C)c3)cc2)cc1` [Compound 4089, 4-((1-(3-(dimethylamino)propyl)-1H-indol-5-yl)oxy)-N-(4-methoxyphenyl)benzamide], the IC50 was found to be 4.4 µM in assay [1] (setting [15]); 5.2 µM in assay [2] (setting [16]); 4.4 µM in assay [3] (setting [17]); 13.2 µM in assay [4] (setting [18]); 7.7 µM in assay [5] (setting [19]); 4.3 µM in assay [6] (setting [20]). In addition, the IC50 in assay [7] (setting [21]) worked out at 4.4 µM.

Take `CN(C)CCCn1ccc2cc(Oc3ccc(C(=O)Nc4ccc5c(c4)OCO5)cc3)ccc21` [Compound 4090, N-(benzo[d][1,3]dioxol-5-yl)-4-((1-(3-(dimethylamino)propyl)-1H-indol-5-yl)oxy)benzamide]: the IC50 in assay [1] (setting [15]) turned out to be 6.3 µM; in assay [2] (setting [16]), 9.6 µM; in assay [3] (setting [17]) it was 4.6 µM; in assay [4] (setting [18]), 5.3 µM; in assay [5] (setting [19]), 8.4 µM; in assay [6] (setting [20]), 7.2 µM. Further, the IC50 in assay [7] (setting [21]) is 2.5 µM.

Regarding `CN(C)CCCn1ccc2cc(Oc3ccc(C(=O)Nc4cccc(F)c4)cc3)ccc21` [Compound 4091, 4-((1-(3-(dimethylamino)propyl)-1H-indol-5-yl)oxy)-N-(3-fluorophenyl)benzamide], the IC50 in assay [1] (setting [15]) came to 9.7 µM; in assay [2] (setting [16]), 28.9 µM; in assay [3] (setting [17]) it was 10.6 µM; in assay [4] (setting [18]) it was 10.2 µM; in assay [5] (setting [19]), 9.5 µM; in assay [6] (setting [20]), 15.4 µM. In assay [7] (setting [21]), the IC50 stood at 19.6 µM.
